Assay results taken from patent US20210253518A1, “KINASE INHIBITOR” (NISSAN CHEMICAL CORPORATION, priority 2018, published 2021).

What was measured:
YAP-regulated genes = experiment: DNA microarray gene expression in SKOV3 cells; assay type: cell-based, human; conditions: 10 μM
Method: According to the method of patent document (WO 2014/017513), a composition of McCoy's 5a medium (manufactured by Sigma-Aldrich) containing 0.015% (w/v) deacylated gellan gum (KELCOGEL CG-LA, manufactured by Sansho Co., Ltd.), 30 ng/mL human HB-EGF (manufactured by PEPROTECH), and 15% (v/v) FBS was prepared. Human ovarian cancer cell line SKOV3 cultured according to the protocol recommended by DS Pharma Biomedical Co., Ltd. was suspended in the medium and seeded on a 6 well plate (manufactured by Corning Incorporated, #3471) at 1,000,000 cells/3.3 mL/well. Successively, k-1:B-1 dissolved in DMSO was added to the cell suspension at a final concentration of 10 μM. After further culturing in a CO2 incubator at 37° C. for 6 or 24 hr, 11 mL of phosphate buffered saline (PBS, manufactured by Sigma-Aldrich Japan) was added to the cell culture medium and the cells were precipitated by a centrifugation treatment (400 G, 3 min). The supernatant was removed, the cells were suspended in PBS (10 mL), and further subjected to a centrifugation treatment (400 G, 5 min) to give cell pellets. Successively, total RNA (ribonucleic acid) was isolated from the obtained cells by using RNAeasy Mini Kit (manufactured by Qiagen). DNA microarray of this RNA was performed by HumanGene 2.0ST Array (manufactured by Affymetrix), and changes in the human gene expression due to the addition of the specific compound were comprehensively analyzed (gene analysis contract service of Kurabo Industries Ltd. was used, product number; GA0312).

[1] = tested on: YAP, phosphorylated YAP (Ser127), TAZ; experiment: Western blotting of YAP, phosphorylated YAP, TAZ in SKOV3 cells (2D and 3D culture); assay type: cell-based, human; conditions: 1, 5, 10 μM, 1 hr, both 2D culture and 3D culture, FIG. 1
Method: 2D culture conditions: Human ovarian cancer cell line SKOV3 cultured according to the protocol recommended by DS Pharma Biomedical Co., Ltd. was suspended in McCoy's 5a medium (manufactured by Sigma-Aldrich) containing 15% (v/v) FBS and seeded on a 100 mm plate (manufactured by Corning Incorporated, #430167) at 1,000,000 cells/10 mL and cultured in a CO2 incubator for 24 hr. Successively, k-1:B-1 dissolved in DMSO was added to the culture medium at a final concentration of 1, 5, 10 μM. As the control, the medium without addition and the medium added with DMSO were cultured. After 1 hr, the cells were washed 3 times with ice-cooled phosphate buffered saline (PBS, manufactured by Wako Pure Chemical Industries, Ltd.), 250 μL of RIPA Buffer (manufactured by Wako Pure Chemical Industries, Ltd.) containing a protease inhibitor cocktail (manufactured by Roche) was added, and the cells were lysed with a scraper. […] The supernatant was dispensed, the protein concentration was measured using BCA protein assay kit (manufactured by PIERCE), and then SDS (sodium dodecyl sulfate) gel electrophoresis was performed on the lysate. […] After incubation with a secondary antibody (manufactured by Horseradish peroxidase) linked with an anti-rabbit HRP (horseradish peroxidase) or an anti-mouse HRP, the protein was detected by a chemiluminescence detector (manufactured by BioRad) using ImmunoStar Zeta (manufactured by Wako Pure Chemical Industries, Ltd.).
3D culture conditions: According to the method of patent document (WO 2014/017513), a composition of McCoy's 5a medium (manufactured by Sigma-Aldrich) containing 0.015% (w/v) deacylated gellan gum (KELCOGEL CG-LA, manufactured by Sansho Co., Ltd.), 30 ng/mL human HB-EGF (manufactured by PEPROTECH), and 15% (v/v) FBS was prepared. […] The supernatant was dispensed, the protein concentration was measured using BCA protein assay kit (manufactured by PIERCE), and then SDS gel electrophoresis was performed on the lysate. […]

Compound: CC/C(=N\NC(=O)C(C)Nc1ccccc1)c1ccc(O)c(C)c1O (centres unmarked) [k-1:B-1]
- AMOTL2 expression rate when no addition is 1 (YAP-regulated genes; 6 hr later): 6.92
- ANKRD1 expression rate when no addition is 1 (YAP-regulated genes; 6 hr later): 35.3
- BIRC2 expression rate when no addition is 1 (YAP-regulated genes; 6 hr later): 1.27
- CCND1 expression rate when no addition is 1 (YAP-regulated genes; 6 hr later): 1.63
- CTGF expression rate when no addition is 1 (YAP-regulated genes; 6 hr later): 21.4
- CYR61 expression rate when no addition is 1 (YAP-regulated genes; 6 hr later): 29.6
- TGFB2 expression rate when no addition is 1 (YAP-regulated genes; 6 hr later): 3.63
- AMOTL2 expression rate when no addition is 1 (YAP-regulated genes; 24 hr later): 7.89
- ANKRD1 expression rate when no addition is 1 (YAP-regulated genes; 24 hr later): 72.1
- BIRC2 expression rate when no addition is 1 (YAP-regulated genes; 24 hr later): 1.44
- CCND1 expression rate when no addition is 1 (YAP-regulated genes; 24 hr later): 2.01
- CTGF expression rate when no addition is 1 (YAP-regulated genes; 24 hr later): 23.2
- CYR61 expression rate when no addition is 1 (YAP-regulated genes; 24 hr later): 26.9
- TGFB2 expression rate when no addition is 1 (YAP-regulated genes; 24 hr later): 9.84
- phosphorylation of YAP [1]: suppressed
- total TAZ protein amount in the cell [1]: increased
- total YAP protein amount in the cell [1]: increased
